Patent US20100291196A1, “METHOD OF TREATMENT OF AUTISM SPECTRUM DISORDER WITH LIPOSOMAL REDUCED GLUTATHIONE” (priority 2005, published 2010)

How the values were obtained:
[1] = tested on: children with autism; conditions: cited from earlier work
[2] = tested on: methionine cycle function; conditions: for improvement with known intermediates and support supplements of the methionine cycle: Case 3, supplements taken together in the month before liposomal glutathione; for blood pressure after initiating the therapies / how the patient felt a few days after initiating the therapies: in vivo
Text: The elevation of histamine is also an indicator of decreased methylation function as it is inactivated by histamine-methyl transferase.
During the month prior to evaluation the MM initiated therapy with SAMe, folate, betaine (trimethyl glycine), N-acetylcysteine and B12 by injection and oral glutathione (neat, not in the form of the invention).

[3] = 3 grams by oral ingestion; cited from earlier work
[4] = tested on: children; assay: Practical experience and clinical observation of children using methylcobalamin by injection; type: in vivo, human
[5] = 800 μg folinic acid and 1000 mg betaine twice daily, 3 months
[6] = after a month of injection therapy
[7] = second intervention, injectable methylcobalamin added to folinic acid and betaine

how the patient felt a few days after initiating the therapies [2] | Molecule | improvement with known intermediates and support supplements of the methionine cycle [2] | blood pressure after initiating the therapies [2] | further results
– | Nc1nc(=O)c2c([nH]1)NCC(CNc1ccc(C(=O)N[C@@H](CCC(=O)O)C(=O)O)cc1)N2C=O (mixture of isomers) [folinic acid] | – | – | methionine cycle metabolites versus concentrations in controls [1, 5]: effective in normalizing; total GSH (tGSH) or GSSG concentrations or tGSH:GSSG ratio [1, 5]: improved but did not normalize
felt worse | CC(=O)N[C@@H](CS)C(=O)O [N-acetylcysteine] | did not improve | 170/120 | –
felt worse | C[N+](C)(C)CC(=O)O [betaine, trimethyl glycine] | – | 170/120 | –
felt worse | Nc1nc2ncc(CNc3ccc(C(=O)N[C@@H](CCC(=O)O)C(=O)O)cc3)nc2c(=O)[nH]1 [folic acid] | did not improve | 170/120 | –
felt worse | N[C@@H](CCC(=O)N[C@@H](CS)C(=O)NCC(=O)O)C(=O)O [glutathione, gamma-glutamyl-cysteinyl-glycine] | did not improve | 170/120 | plasma glutathione levels [3]: does not elevate
– | C/C1=C2/[N-][C@H]([C@H](CC(N)=O)[C@@]2(C)CCC(=O)NC[C@@H](C)OP(=O)([O-])O[C@H]2[C@@H](O)[C@@H](n3cnc4cc(C)c(C)cc43)O[C@@H]2CO)[C@]2(C)N=C(/C(C)=C3N=C(/C=C4N=C1[C@@H](CCC(N)=O)C\4(C)C)[C@@H](CCC(N)=O)[C@]\3(C)CC(N)=O)[C@@H](CCC(N)=O)[C@]2(C)CC(N)=O.[CH3-].[Co+3] [methylcobalamin] | – | – | irritability ([4]; many children, methylcobalamin by injection): substantially increased irritability; SAH ([4]; methylcobalamin by itself, preliminary data): can cause an increase; GSSG [1, 6]: decreased; level of total GSH (tGSH) [1, 6]: increased; tGSH:GSSG ratio (glutathione redox profile) [1, 6]: normalization; speech and cognition ([1]; injection therapy, children with autism): improvement in speech and cognition; concentration of adenosine and GSSG [1, 7]: further decrease; concentrations of methionine, cysteine, tGSH and SAM:SAH and tGSH:GSSG ratios [1, 7]: further increase
felt worse | cyanocobalamin [B12 (cyanocobalamin)] | did not improve | 170/120 | –

Molecule | how the patient felt a few days after initiating the therapies [2] | improvement with known intermediates and support supplements of the methionine cycle [2] | blood pressure after initiating the therapies [2] | further results
C[S+](CC[C@H](N)C(=O)[O-])C[C@H]1O[C@@H](n2cnc3c(N)ncnc32)[C@H](O)[C@@H]1O (stereo partly shown) [SAMe, S-Adenosylmethionine] | felt worse | did not improve | 170/120 | –
